Legend:
[1] = molecular target: T1, PI3Kγ (p101/p110γ protein) (Homo sapiens, UniProt P48736); assay: PI3Kγ In Vitro Kinase Assay; assay type: biochemical; conditions: purified recombinant p101/p110γ with G protein β1/γ2 subunits; 20 μM ATP, 25 μM PIP2; 20 minutes at room temperature
T1 construct: HA; made in house; host or cells: Spodoptera frugiperda (Sf9) cells, baculovirus co-infection
Procedure, shortened: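 Sf9-expressed, purified human p101/p110γ (2.7 nM) was activated by Gβ1/γ2 (57.7 nM) and reacted with 20 μM ATP plus [γ-32P]ATP on PIP2 (25 μM)/PE (300 μM) micelles with 10 mM MgCl2 in HEPES buffer. Reactions ran 20 min at room temperature. Filter-captured radiolabeled PIP3 was counted by scintillation.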

T1 sequence (P48736 whole entry, species assumed): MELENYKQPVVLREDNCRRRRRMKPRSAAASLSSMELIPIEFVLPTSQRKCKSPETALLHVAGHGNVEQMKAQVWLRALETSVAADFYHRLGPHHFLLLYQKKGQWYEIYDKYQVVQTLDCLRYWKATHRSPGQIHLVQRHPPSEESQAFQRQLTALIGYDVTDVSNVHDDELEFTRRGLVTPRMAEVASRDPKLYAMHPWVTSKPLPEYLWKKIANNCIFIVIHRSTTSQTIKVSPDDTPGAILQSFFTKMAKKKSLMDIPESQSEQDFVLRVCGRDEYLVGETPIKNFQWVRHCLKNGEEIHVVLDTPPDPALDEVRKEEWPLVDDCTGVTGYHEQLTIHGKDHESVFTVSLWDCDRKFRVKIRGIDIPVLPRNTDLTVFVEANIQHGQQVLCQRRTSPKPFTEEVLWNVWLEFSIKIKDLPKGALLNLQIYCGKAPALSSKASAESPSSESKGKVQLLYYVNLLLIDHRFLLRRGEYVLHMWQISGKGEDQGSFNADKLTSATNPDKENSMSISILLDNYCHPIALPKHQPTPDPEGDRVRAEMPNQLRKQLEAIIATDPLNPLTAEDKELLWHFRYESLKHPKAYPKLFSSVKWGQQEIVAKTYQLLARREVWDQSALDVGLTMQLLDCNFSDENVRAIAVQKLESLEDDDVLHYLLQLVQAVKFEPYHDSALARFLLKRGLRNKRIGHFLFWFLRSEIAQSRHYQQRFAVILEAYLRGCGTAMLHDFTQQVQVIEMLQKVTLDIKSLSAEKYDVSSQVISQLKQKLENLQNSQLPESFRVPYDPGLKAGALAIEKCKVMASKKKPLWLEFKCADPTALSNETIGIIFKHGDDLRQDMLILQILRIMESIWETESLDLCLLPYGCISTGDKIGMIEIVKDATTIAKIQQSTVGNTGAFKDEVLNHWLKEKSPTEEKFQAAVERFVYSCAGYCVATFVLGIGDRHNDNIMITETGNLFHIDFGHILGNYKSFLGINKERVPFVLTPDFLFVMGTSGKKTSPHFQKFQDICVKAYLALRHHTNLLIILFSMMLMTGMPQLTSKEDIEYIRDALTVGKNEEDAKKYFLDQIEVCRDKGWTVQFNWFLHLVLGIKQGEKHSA
T1 sequence (Q8WYR1 whole entry partner, species assumed): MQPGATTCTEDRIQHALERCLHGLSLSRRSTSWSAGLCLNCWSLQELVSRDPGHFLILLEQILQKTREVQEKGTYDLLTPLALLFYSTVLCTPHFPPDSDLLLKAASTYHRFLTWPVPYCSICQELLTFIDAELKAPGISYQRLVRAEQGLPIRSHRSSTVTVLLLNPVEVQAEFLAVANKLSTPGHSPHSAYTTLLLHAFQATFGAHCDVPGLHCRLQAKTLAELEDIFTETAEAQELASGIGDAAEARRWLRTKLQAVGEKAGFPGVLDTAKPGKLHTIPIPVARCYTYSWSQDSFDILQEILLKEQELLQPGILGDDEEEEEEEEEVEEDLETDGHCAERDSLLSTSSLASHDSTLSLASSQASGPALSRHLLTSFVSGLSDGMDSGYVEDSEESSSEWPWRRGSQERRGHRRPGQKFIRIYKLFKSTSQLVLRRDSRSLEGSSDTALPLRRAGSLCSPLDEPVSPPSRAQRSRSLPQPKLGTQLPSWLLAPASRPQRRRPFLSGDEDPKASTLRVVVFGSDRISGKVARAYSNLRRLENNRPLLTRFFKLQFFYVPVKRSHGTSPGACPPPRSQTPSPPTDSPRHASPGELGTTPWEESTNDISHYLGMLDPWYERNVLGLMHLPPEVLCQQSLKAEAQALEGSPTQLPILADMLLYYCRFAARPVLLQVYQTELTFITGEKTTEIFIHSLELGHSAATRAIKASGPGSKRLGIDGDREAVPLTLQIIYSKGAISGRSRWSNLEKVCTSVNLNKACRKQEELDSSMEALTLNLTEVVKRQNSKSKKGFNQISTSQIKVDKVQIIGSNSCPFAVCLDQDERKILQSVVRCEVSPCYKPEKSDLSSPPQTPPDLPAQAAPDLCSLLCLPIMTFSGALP

Structure (SMILES)	IC50 [1] [nM]	melting point [°C]
Cc1cc(C=C2SC(=S)NC2=O)cc2c1OCC(=O)N2Cc1ccc(CN2CCCCC2)cc1 [Example 91, 8-Methyl-6-(4-oxo-2-thioxo-thiazolidin-5-ylidenemethyl)-4-(4-piperidin-1-ylmethyl-benzyl)-4H-benzo[1,4]oxazin-3-one]	8	277 to 278
CCN(CC)Cc1ccc(CN2C(=O)COc3c(C)cc(C=C4SC(=S)NC4=O)cc32)cc1 [Example 92, 4-(4-Diethylaminomethyl-benzyl)-8-methyl-6-(4-oxo-2-thioxo-thiazolidin-5-ylidenemethyl)-4H-benzo[1,4]oxazin-3-one]	6	250 to 252
CCN(CC)Cc1ccc(CN2C(=O)COc3ccc(C=C4SC(=O)NC4=O)cc32)cc1 [Example 93, 5-[4-(4-Diethylaminomethyl-benzyl)-3-oxo-3,4-dihydro-2H-benzo[1,4]oxazin-6-ylmethylene]-thiazolidine-2,4-dione]	16	244 to 246
CC(C)Oc1cc(CN2C(=O)COc3ccc(C=C4SC(=S)NC4=O)cc32)cc(OC(C)C)c1 [Example 94, 4-(3,5-Diisopropoxy-benzyl)-6-(4-oxo-2-thioxo-thiazolidin-5-ylidenemethyl)-4H-benzo[1,4]oxazin-3-one]	29	245 to 247
COc1ccc(C(C)(C)C)cc1CN1C(=O)COc2ccc(C=C3SC(=S)NC3=O)cc21 [Example 95, 4-(5-tert-Butyl-2-methoxy-benzyl)-6-(4-oxo-2-thioxo-thiazolidin-5-ylidenemethyl)-4H-1,4-benzoxazin-3-one]	225	255 to 257
Cc1cc(C)c(C)c(CN2C(=O)COc3ccc(C=C4SC(=S)NC4=O)cc32)c1C [Example 96, 6-(4-Oxo-2-thioxo-thiazolidin-5-ylidenemethyl)-4-(2,3,5,6-tetramethyl-benzyl)-4H-1,4-benzoxazin-3-one]	670	277 to 280
O=C1NC(=S)SC1=Cc1ccc2c(c1)N(CCc1ccc(C(F)(F)F)cc1)C(=O)CO2 [Example 104, 6-(Oxo-2-thioxo-thiazolidin-5-ylidenmethyl)-4-[2-(4-trifluoromethyl-phenyl)-ethyl]-4H-benzo[1,4]oxazin-3-one]	2	253 to 255
O=C1NC(=S)SC1=Cc1ccc2c(c1)N(CCc1cccc(C(F)(F)F)c1)C(=O)CO2 [Example 106, 6-(Oxo-2-thioxo-thiazolidin-5-ylidenmethyl)-4-[2-(3-trifluoromethyl-phenyl)-ethyl]-4H-benzo[1,4]oxazin-3-one]	9	241 to 243
O=C1NC(=S)SC1=Cc1cc(Cl)c2c(c1)N(CCc1ccc(C(F)(F)F)cc1)C(=O)CO2 [Example 107, 8-Chloro-6-(oxo-2-thioxo-thiazolidin-5-ylidenmethyl)-4-[2-(4-trifluoromethyl-phenyl)-ethyl]-4H-benzo[1,4]oxazin-3-one]	72	275 to 277
O=C1NC(=S)SC1=Cc1ccc2c(c1)N(CCc1ccccc1C(F)(F)F)C(=O)CO2 [Example 108, 6-(Oxo-2-thioxo-thiazolidin-5-ylidenmethyl)-4-[2-(2-trifluoromethyl-phenyl)-ethyl]-4H-benzo[1,4]oxazin-3-one]	4	283 to 286
O=C1NC(=S)SC1=Cc1ccc2c(c1)N(Cc1cccc(-c3ccncc3)c1)C(=O)CO2 [Example 114, 6-(4-Oxo-2-thioxo-thiazolidin-5-ylidenemethyl)-4-(3-pyridin-4-yl-benzyl)-4H-benzo[1,4]-oxazin-3-one]	5	297 to 299
O=C1NC(=S)SC1=Cc1ccc2c(c1)N(CCc1ccc(Oc3ccccc3)cc1)C(=O)CO2 [Example 129, 6-(4-Oxo-2-thioxo-thiazolidin-5-ylidenemethyl)-4-[2-(4-phenoxy-phenyl)-ethyl]-4H-1,4-benzoxazin-3-one]	49	220 to 224
COc1cc(CCN2C(=O)COc3ccc(C=C4SC(=S)NC4=O)cc32)cc(OC)c1 [Example 130, 4-[2-(3,5-Dimethoxy-phenyl)-ethyl]-6-(4-oxo-2-thioxo-thiazolidin-5-ylidenemethyl)-4H-benzo[1,4]oxazin-3-one]	3	267 to 269
CC(C)(C)c1ccc(CCN2C(=O)COc3ccc(C=C4SC(=S)NC4=O)cc32)cc1 [Example 131, 4-[2-(4-tert-Butyl-phenyl)-ethyl]-6-(4-oxo-2-thioxo-thiazolidin-5-ylidenemethyl)-4H-benzo[1,4]-oxazin-3-one]	39	283 to 285
Cc1cc(CN2C(=O)COc3ccc(C=C4SC(=S)NC4=O)cc32)n(C)n1 [Example 339, 4-(2,5-Dimethyl-2H-pyrazol-3-ylmethyl)-6-(4-oxo-2-thioxo-thiazolidin-5-ylidenemethyl)-4H-1,4-benzoxazin-3-one]	80	–

Now from value to compound:

IC50 [1] [nM]	melting point [°C]	Structure (SMILES)
3	> 300	O=C1NC(=S)SC1=Cc1ccc2c(c1)N(OCc1ccc(Cl)c(Cl)c1)C(=O)CO2 [Example 88, 4-(3,4-Dichloro-benzyloxy)-6-(4-oxo-2-thioxo-thiazolidin-5-ylidenemethyl)-4H-benzo[1,4]oxazin-3-one]
4	> 300	Cc1cc(C)cc(CON2C(=O)COc3ccc(C=C4SC(=S)NC4=O)cc32)c1 [Example 89, 4-(3,5-Dimethyl-benzyloxy)-6-(4-oxo-2-thioxo-thiazolidin-5-ylidenemethyl)-4H-benzo[1,4]oxazin-3-one]
4	> 300	O=C1NC(=S)SC1=Cc1ccc2c(c1)N(OCc1ccccc1)C(=O)CO2 [Example 90, 4-Benzyloxy-6-(4-oxo-2-thioxo-thiazolidin-5-ylidenemethyl)-4H-benzo[1,4]oxazin-3-one]
3	> 300	Cc1ccc(CN2C(=O)COc3ccc(C=C4SC(=S)NC4=O)cc32)cc1C [Example 97, 4-(3,4-Dimethyl-benzyl)-6-(4-oxo-2-thioxo-thiazolidin-5-ylidenemethyl)-4H-1,4-benzoxazin-3-one]
5	> 300	Cc1cccc(CN2C(=O)COc3ccc(C=C4SC(=S)NC4=O)cc32)c1C [Example 98, 4-(2,3-Dimethyl-benzyl)-6-(4-oxo-2-thioxo-thiazolidin-5-ylidenemethyl)-4H-benzo[1,4]oxazin-3-one]
18	> 300	Cc1ccc(C)c(CN2C(=O)COc3ccc(C=C4SC(=S)NC4=O)cc32)c1 [Example 99, 4-(2,5-Dimethyl-benzyl)-6-(4-oxo-2-thioxo-thiazolidin-5-ylidenemethyl)-4H-1,4-benzoxazin-3-one]
2	274 to 276	O=C1NC(=S)SC1=Cc1ccc2c(c1)N(CCc1ccc(Br)cc1)C(=O)CO2 [Example 102, 4-[2-(4-Bromo-phenyl)-ethyl]-6-(4-oxo-2-thioxo-thiazolidin-5-ylidenmethyl)-4H-benzo[1,4]oxazin-3-one]
4	267 to 269	O=C1NC(=S)SC1=Cc1ccc2c(c1)N(CCc1ccc(Cl)c(Cl)c1)C(=O)CO2 [Example 103, 4-[2-(3,4-Dichloro-phenyl)-ethyl]-6-(4-oxo-2-thioxo-thiazolidin-5-ylidenmethyl)-4H-benzo[1,4]oxazin-3-one]
5	267 to 269	O=C1NC(=S)SC1=Cc1ccc2c(c1)N(CCc1ccc(Cl)cc1Cl)C(=O)CO2 [Example 105, 4-[2-(2,4-Dichloro-phenyl)-ethyl]-6-(4-oxo-2-thioxo-thiazolidin-5-ylidenmethyl)-4H-benzo[1,4]oxazin-3-one]
12	266 to 268	CN(C)c1ccc(CCN2C(=O)COc3ccc(C=C4SC(=S)NC4=O)cc32)cc1 [Example 132, 4-[2-(4-Dimethylaniino-phenyl)-ethyl]-6-(4-oxo-2-thioxo-thiazolidin-5-ylidenemethyl)-4H-benzo[1,4]-oxazin-3-one]
5	263 to 266	O=C1NC(=S)SC1=Cc1ccc2c(c1)N(CCc1ccc(F)c(F)c1)C(=O)CO2 [Example 133, 4-[2-(3,4-Difluoro-phenyl)-ethyl]-6-(4-oxo-2-thioxo-thiazolidin-5-ylidenemethyl)-4H-benzo[1,4]oxazin-3-one]
5	278 to 280	O=C1NC(=S)SC1=Cc1ccc2c(c1)N(CCc1ccc(Cl)cc1)C(=O)CO2 [Example 134, 4-[2-(4-Chloro-phenyl)-ethyl]-6-(4-oxo-2-thioxo-thiazolidin-5-ylidenemethyl)-4H-1,4-benzoxazin-3-one]
5	280 to 282	O=C1NC(=S)SC1=Cc1ccc2c(c1)N(CCc1cccc(Cl)c1)C(=O)CO2 [Example 135, 4-[2-(3-Chloro-phenyl)-ethyl]-6-(4-oxo-2-thioxo-thiazolidin-5-ylidenemethyl)-4H-1,4-benzoxazin-3-one]
13	–	O=C1NC(=S)SC1=Cc1ccc2c(c1)N(Cc1ccoc1)C(=O)CO2 [Example 340, 4-Furan-3-ylmethyl-6-(4-oxo-2-thioxo-thiazolidin-5-ylidenemethyl)-4H-1,4-benzoxazin-3-one]
3	–	O=C1NC(=S)S/C1=C\c1cc(F)c2c(c1)N(Cc1ccc(Cl)c(Cl)c1)C(=O)CO2 [Example 341, 4-(3,4-Dichloro-benzyl)-8-fluoro-6-[4-oxo-2-thioxo-thiazolidin-(5Z)-ylidenemethyl]-4H-benzo[1,4]oxazin-3-one]
